Experimental data as given in US20240368151A1, “NOVEL ERGOLINES AND METHODS OF TREATING MOOD DISORDERS” (priority 2021, published 2024).

How the values were obtained:
C57BL/6 mice = assay: Mouse head twitch response (HTR) assay; format: in vivo; conditions: SC; for head twitch response (HTR), in words: mice; for head twitch response (HTR), in words / # HTR at Most Efficacious Dose / Emax (95% CI): 20 min observation; for Most Efficacious Dose / # HTR at Most Efficacious Dose / Emax (95% CI): mouse HTR; for Emax (95% CI): curve fit
Procedure: Agonists of the 5-HT2A receptor are well known to induce this effect in rodents and the potency of this HTR is correlated with hallucinogenic potency in humans.
Animals. Adult male C57BL/6 mice, aged 6-8 weeks (body weight 20-25 g) were used in this experiment. Animals were housed under controlled temperatures and 12-hour light/dark cycles (lights on between 07:00-19:00 h), with ad libitum food and water. This study was carried out in strict accordance with the requirements of the Committee for the Purpose of Control and Supervision of Experiments on Animals (CPCSEA), India. All efforts were made to minimize suffering.
Drugs and Drug Administration. Compound 1 was synthesized as described above. It was administered subcutaneously (SC) dissolved in saline vehicle at a volume of 10 mL/kg. Five doses were tested, with n=6 animals/group. Doses were calculated on the basis of the freebase.
Procedure. Mice were administered one dose of the drug and immediately placed into a small open field for behavioral observation. Animals were observed continuously for 20 mins and the number of head twitches (HTs) were counted by an observer blind to the treatment condition.
Statistical Analysis. The data points shown are the mean±standard error of the mean (SEM). Analysis was performed using GraphPad Prism 6. Curves were fit using a non-linear gaussian distribution to calculate ED50 and Emax values.
Additional disclosed compounds were tested in the mouse head twitch response (HTR) assay according to the procedure described in Example 34. […] Lastly, compounds with much larger benzyl and phenethyl substituents on the amine nitrogen (e.g., 10 and 11) were low efficacy in this assay, consistent with their lower maximal efficacy in the arrestin functional assay (see Example 32).

D2 receptor = D2 receptor (Homo sapiens (Human), UniProt P14416); assay: FLIPR Ca^2+ flux agonist assay at D2; format: cell-based
Procedure: Functional Assays at Adrenergic and Dopamine Receptors. Agonist activity at Alpha1A, Alpha2A, D1, and D2 receptors was determined using a FLIPR Ca^2+ flux assay at WuXi AppTec (Hong Kong) Limited according to their standard protocols. Briefly, stably transfected cells expressing the receptor of interest were grown and plated in a 384 well plate and incubated at 37° C. and 5% CO2 overnight. A solution of 250 mM probenecid in 1 mL FLIPR assay buffer was prepared fresh. This was combined with a fluorescent dye (Fluo-4 Direct™) to make a final assay concentration of 2.5 mM. […] The fluorescent dye was then added to the assay plate along with assay buffer to a final volume of 40 μL. The cell plate was incubated for 50 min at 37° C. and 5% CO2 and placed into the FLIPR Tetra along with the compound plate. 10 μL of references and compounds were then transferred from the compound plate into the cell plate and the fluorescent signal was read.

5-HT2B receptor = 5-HT2B receptor (Homo sapiens (Human), UniProt P41595); assay: FLIPR Ca^2+ flux agonist assay at 5-HT2B; format: cell-based; conditions: HEK293
In short: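 Agonist-induced calcium flux was measured on FLIPR Tetra in stable HEK293 cells for 5-HT2A and 5-HT2B, and in stable CHO cells for 5-HT1A. Cells were loaded with Fluo-4 Direct dye and 2.5 mM probenecid for 50 min at 37 °C before compound addition and fluorescence reading.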

Alpha1A receptor = Alpha1A receptor (Homo sapiens (Human), UniProt P35348); assay: FLIPR Ca^2+ flux agonist assay at Alpha1A; format: cell-based
Procedure: Disclosed compounds were tested for agonist activity at several adrenergic (Alpha1A and Alpha2A) and dopamine (D1 and D2) receptor subtypes using Ca^2+ flux functional assays, with the results summarized in Table 6. Selectivity for the 5-HT2A receptor over these other targets varied depending on the specific target and compound.
Functional Assays at Adrenergic and Dopamine Receptors. Agonist activity at Alpha1A, Alpha2A, D1, and D2 receptors was determined using a FLIPR Ca^2+ flux assay at WuXi AppTec (Hong Kong) Limited according to their standard protocols. Briefly, stably transfected cells expressing the receptor of interest were grown and plated in a 384 well plate and incubated at 37° C. and 5% CO2 overnight. A solution of 250 mM probenecid in 1 mL FLIPR assay buffer was prepared fresh. This was combined with a fluorescent dye (Fluo-4 Direct™) to make a final assay concentration of 2.5 mM. Compounds were diluted 1:3.16 for 10 points and 750 nL was added to a 384 well compound plate using ECHO along with 30 μL assay buffer. The fluorescent dye was then added to the assay plate along with assay buffer to a final volume of 40 μL. The cell plate was incubated for 50 min at 37° C. and 5% CO2 and placed into the FLIPR Tetra along with the compound plate. 10 μL of references and compounds were then transferred from the compound plate into the cell plate and the fluorescent signal was read.

5-HT2A receptor = 5-HT2A receptor (Homo sapiens (Human), UniProt P28223); format: cell-based; conditions: for arrestin bias: potency in arrestin assay compared to Ca^2+ signaling assay: 5-HT2A arrestin vs G protein-dependent Ca^2+ assay; for 5-HT2A Arrestin % Act @ Max Dose / agonist type in the 5-HT2A arrestin recruitment assay, in words: beta-arrestin recruitment
In short: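 PathHunter enzyme-fragment complementation in cells expressing ProLink-tagged 5-HT2A and β-arrestin–β-galactosidase fusion. Cells incubated at 37 °C before testing; recruitment read by chemiluminescence. Agonist activity expressed as % of maximal control ligand response after vehicle subtraction.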

human 5-HT2C receptor = human 5-HT2C receptor (Homo sapiens (Human), UniProt P28335); format: cell-based; conditions: Ca^2+ flux
[1] = Metabolic stability in rat liver microsomes (RLM); format: in vitro ADME; conditions: both sexes, rat, pooled rat liver microsomes, pH 7.4, NADPH

Sequence of D2 receptor (P14416 whole entry, looked up): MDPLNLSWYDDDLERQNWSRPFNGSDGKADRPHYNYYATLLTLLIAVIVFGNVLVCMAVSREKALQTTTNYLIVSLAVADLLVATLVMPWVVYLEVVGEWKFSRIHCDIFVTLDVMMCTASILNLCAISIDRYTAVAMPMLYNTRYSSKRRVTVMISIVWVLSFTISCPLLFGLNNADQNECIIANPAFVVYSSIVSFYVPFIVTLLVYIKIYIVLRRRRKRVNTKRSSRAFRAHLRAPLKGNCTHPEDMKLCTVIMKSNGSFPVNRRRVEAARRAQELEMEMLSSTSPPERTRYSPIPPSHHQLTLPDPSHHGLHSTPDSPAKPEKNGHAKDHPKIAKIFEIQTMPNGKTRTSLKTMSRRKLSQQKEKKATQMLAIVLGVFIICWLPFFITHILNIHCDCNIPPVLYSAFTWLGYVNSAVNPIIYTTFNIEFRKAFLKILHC
Sequence of Alpha1A receptor (P35348 whole entry, looked up): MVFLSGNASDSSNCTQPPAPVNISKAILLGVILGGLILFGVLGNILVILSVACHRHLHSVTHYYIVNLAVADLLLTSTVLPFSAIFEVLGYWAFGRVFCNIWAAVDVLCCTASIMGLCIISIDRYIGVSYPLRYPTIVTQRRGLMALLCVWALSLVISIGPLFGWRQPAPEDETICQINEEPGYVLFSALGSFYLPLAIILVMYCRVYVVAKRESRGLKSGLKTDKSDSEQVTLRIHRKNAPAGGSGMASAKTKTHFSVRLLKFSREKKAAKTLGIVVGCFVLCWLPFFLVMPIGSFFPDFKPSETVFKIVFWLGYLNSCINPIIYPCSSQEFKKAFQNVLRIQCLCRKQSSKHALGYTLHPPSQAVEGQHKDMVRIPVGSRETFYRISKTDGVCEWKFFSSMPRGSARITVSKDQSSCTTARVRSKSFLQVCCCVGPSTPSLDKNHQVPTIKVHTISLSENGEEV
Sequence of 5-HT2B receptor (P41595 whole entry, looked up): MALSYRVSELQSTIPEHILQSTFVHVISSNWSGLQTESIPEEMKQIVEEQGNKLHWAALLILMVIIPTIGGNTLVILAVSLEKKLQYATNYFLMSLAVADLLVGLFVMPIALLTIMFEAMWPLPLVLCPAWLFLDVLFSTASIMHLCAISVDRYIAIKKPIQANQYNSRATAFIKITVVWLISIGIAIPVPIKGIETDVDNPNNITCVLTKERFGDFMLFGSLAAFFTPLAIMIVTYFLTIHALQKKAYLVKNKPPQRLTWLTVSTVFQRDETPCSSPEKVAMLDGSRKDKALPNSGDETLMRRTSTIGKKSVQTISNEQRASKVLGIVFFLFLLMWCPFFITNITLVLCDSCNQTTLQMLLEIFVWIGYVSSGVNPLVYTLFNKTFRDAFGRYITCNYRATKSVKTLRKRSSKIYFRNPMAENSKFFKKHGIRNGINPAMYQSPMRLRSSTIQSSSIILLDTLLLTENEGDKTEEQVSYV
Sequence of human 5-HT2C receptor (P28335 33-458 limits assumed): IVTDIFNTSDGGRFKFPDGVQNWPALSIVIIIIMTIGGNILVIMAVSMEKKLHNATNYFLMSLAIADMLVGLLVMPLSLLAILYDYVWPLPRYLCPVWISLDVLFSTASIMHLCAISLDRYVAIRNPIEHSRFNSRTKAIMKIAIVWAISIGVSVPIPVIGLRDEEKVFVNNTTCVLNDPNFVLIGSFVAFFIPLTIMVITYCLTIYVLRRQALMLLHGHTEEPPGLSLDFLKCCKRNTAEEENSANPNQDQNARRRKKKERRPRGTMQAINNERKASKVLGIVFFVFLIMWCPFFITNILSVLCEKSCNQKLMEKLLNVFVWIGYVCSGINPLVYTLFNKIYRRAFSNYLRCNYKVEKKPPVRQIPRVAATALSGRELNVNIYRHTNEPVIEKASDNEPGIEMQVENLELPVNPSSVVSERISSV

Row | SMILES | head twitch response (HTR), in words (C57BL/6 mice) | Most Efficacious Dose (C57BL/6 mice) | # HTR at Most Efficacious Dose (C57BL/6 mice) | Emax (95% CI) (C57BL/6 mice) | D2 % Act @ Max Dose (D2 receptor) [%] | 5-HT2B % Act @ Max Dose (5-HT2B receptor) [%] | Alpha 1A % Act @ Max Dose (Alpha1A receptor) [%] | agonist efficacy at Alpha1A, in words (Alpha1A receptor) | arrestin bias: potency in arrestin assay compared to Ca^2+ signaling assay (5-HT2A receptor) [fold] | 5-HT2A Arrestin % Act @ Max Dose (5-HT2A receptor) [%] | agonist type in the 5-HT2A arrestin recruitment assay, in words (5-HT2A receptor) | 5-HT2C % Act @ Max Dose (human 5-HT2C receptor) [%] | half-life at 1 μM [1] [min]
1 | CCN(CC)C(=O)[C@@H]1C=C2c3cccc4[nH]cc(c34)C[C@H]2N(Cc2ccccc2OC)C1 [Compound 10, (6aR,9R)-N,N-diethyl-7-(2-methoxybenzyl)-4,6,6a,7,8,9-hexahydroindolo[4,3-fg]quinoline-9-carboxamide] | low efficacy | (3.2 mg/kg) | 6.5 | 7.749 | 86.87 | 2.005 | 26.56 | very low efficacy agonists | > 50 | 47.06 | partial agonists | 13.417 | 3.4
2 | CCN(CC)C(=O)[C@@H]1C=C2c3cccc4[nH]cc(c34)C[C@H]2N(CCc2ccccc2OC)C1 [Compound 11, (6aR,9R)-N,N-diethyl-7-(2-methoxyphenethyl)-4,6,6a,7,8,9-hexahydroindolo[4,3-fg]quinoline-9-carboxamide] | low efficacy | (3.2 mg/kg) | 12.0 | 19.79 | 98.49 | 2.5 | 28.23 | very low efficacy agonists | > 50 | 54.255 | partial agonists | 107.89 | 1.16
3 | CCCN1C[C@H](C(=O)N(CC)CC)C=C2c3cccc4[nH]cc(c34)C[C@H]21 [Compound 1, (6aR,9R)-N,N-diethyl-7-propyl-4,6,6a,7,8,9-hexahydroindolo[4,3-fg]quinoline-9-carboxamide] | induced a robust and dose-dependent HTR | (1 mg/kg) | 19.5 | 21.63 | 94.51 | 103.75 | 80.6 |  |  | 128.71 | full agonists | 106.79 | 16.2
4 | CCN(CC)C(=O)[C@@H]1C=C2c3cccc4[nH]cc(c34)C[C@H]2N(CCCF)C1 [Compound 2, (6aR,9R)-N,N-diethyl-7-(3-fluoropropyl)-4,6,6a,7,8,9-hexahydroindolo[4,3-fg]quinoline-9-carboxamide] |  | (0.32 mg/kg) | 21.833 | 20.47 | 91.2 | 101.16 | 109.68 |  |  | 114.55 | full agonists | 105.48 | 12
5 | CCCN1C[C@H](C(=O)NC(CC)CC)C=C2c3cccc4[nH]cc(c34)C[C@H]21 [Compound 6, (6aR,9R)-N-(pentan-3-yl)-7-propyl-4,6,6a,7,8,9-hexahydroindolo[4,3-fg]quinoline-9-carboxamide] |  | (1 mg/kg) | 20.5 | 23.06 | 91.67 | 92.93 |  |  |  | 102.75 | full agonists | 116.77 | 1.66
6 | CCCN1C[C@H](C(=O)N2[C@@H](C)C[C@@H]2C)C=C2c3cccc4[nH]cc(c34)C[C@H]21 [Compound 4, ((2S,4S)-2,4-dimethylazetidin-1-yl)((6aR,9R)-7-propyl-4,6,6a,7,8,9-hexahydroindolo[4,3-fg]quinolin-9-yl)methanone] | less efficacious than its N-methyl counterpart compound Int11 | (0.1 mg/kg) | 4.667 | 4.034 | 116.6 | 87.46 | 118.64 |  |  | 116.8 | full agonists | 110.845 | 12.8
7 | CCCN1C[C@H](C(=O)N[C@H](C)CC)C=C2c3cccc4[nH]cc(c34)C[C@H]21 [Compound 3, (6aR,9R)-N-((R)-sec-butyl)-7-propyl-4,6,6a,7,8,9-hexahydroindolo[4,3-fg]quinoline-9-carboxamide] |  | (0.32 mg/kg) | 27.0 | 25.56 | 116.9 | 94.11 | 124.7 |  |  | 109.57 | full agonists | 119.49 | 4.4
